Read-outs that look alike come from different tables or passages of the source.
Molecular target: T1, Chk1 (Homo sapiens, UniProt O14757)
T1 construct: purchased Upstate Biotechnology
T1 sequence (O14757 1-476): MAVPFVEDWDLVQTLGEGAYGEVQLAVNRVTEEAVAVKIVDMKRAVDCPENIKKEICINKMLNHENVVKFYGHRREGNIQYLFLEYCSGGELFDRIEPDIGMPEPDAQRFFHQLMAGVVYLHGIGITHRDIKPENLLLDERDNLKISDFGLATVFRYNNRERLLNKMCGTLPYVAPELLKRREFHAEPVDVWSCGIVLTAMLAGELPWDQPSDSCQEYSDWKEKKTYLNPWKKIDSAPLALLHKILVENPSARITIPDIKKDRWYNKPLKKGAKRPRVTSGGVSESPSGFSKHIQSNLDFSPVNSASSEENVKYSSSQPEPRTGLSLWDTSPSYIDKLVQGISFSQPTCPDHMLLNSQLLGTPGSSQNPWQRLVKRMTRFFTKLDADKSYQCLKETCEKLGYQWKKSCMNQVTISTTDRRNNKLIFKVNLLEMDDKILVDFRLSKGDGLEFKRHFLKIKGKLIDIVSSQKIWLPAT
Test: Chk1 kinase assay: incorporation of γ-33P ATP into immobilized myelin basic protein
Type: biochemical
Conditions: read-out: Chk1 IC50
Outline: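 Incorporation of γ-33P into myelin basic protein coated on plates was scintillation-counted after 1 h at room temperature, duplicate points. Unlabeled ATP was 10 μM with 10 nM Chk1, 30 μM with 20 nM Chk2; buffer Hepes pH 7.6, MgCl2, DTT, 1% DMSO. Output IC50, optionally converted to Ki.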

[1] = Table 11, Chk1 only, class symbols A-D

IC50 [1] | IC50 (Table 11, Chk1 only) | SMILES | further results
 | ≥ 10000 nM | Nc1ncc(-c2cccc(C(=O)NCc3ccccc3)c2)nc1C(=O)NCC(=O)O [Example 577, N-{[3-amino-6-(3-{[(phenylmethyl)amino]carbonyl}phenyl)pyrazin-2-yl]carbonyl}glycine] | 
 | 1000 to 10000 nM | CNNC(=N)c1nc(-c2cccc(C(=O)N[C@H]3CCc4ccccc43)c2)cnc1N [Example 719, 3-{5-amino-6-[imino(2-methylhydrazino)methyl]pyrazin-2-yl}-N-[(1S)-2,3-dihydro-1H-inden-1-yl)benzamide] | 
 | 1000 to 10000 nM | N=C(NNc1nccc(C(F)(F)F)n1)c1nc(-c2cccc(C(=O)NCc3ccccc3)c2)cnc1N [Example 668, 3-[5-amino-6-(imino{2-[4-(trifluoromethyl)pyrimidin-2-yl]hydrazino}methyl)pyrazin-2-yl]-N-(phenylmethyl)benzamide] | 
 | < 50 nM | CNC(=O)c1nc(-c2cccc(CNC3CCc4cc(-c5ccsc5)ccc43)c2)cnc1N (centres unmarked) [Example 481, 3-amino-N-methyl-6-[3-({[5-(3-thienyl)-2,3-dihydro-1H-inden-1-yl]amino}methyl)phenyl]pyrazine-2-carboxamide] | 

More lines, now with the values behind:

SMILES | IC50 [1] | IC50 (Table 11, Chk1 only) | further results
Nc1ncc(-c2cccc(NC(=O)Cc3cccnc3)c2)nc1C(=O)N[C@H]1CCCNC1 [Example 980, 3-amino-N-[(3S)-piperidin-3-yl]-6-{3-[(pyridin-3-ylacetyl)amino]phenyl}pyrazine-2-carboxamide] | < 50 nM |  | 
C/N=C(\C)c1cccc(-c2cnc(N)c(C(=O)NC)n2)c1 [Example 59, 3-amino-N-methyl-6-{3-[(1E)-N-methylethanimidoyl]phenyl}pyrazine-2-carboxamide] |  |  | IC50: 1000 to 10000 nM
COc1ccc(CC(=O)Nc2cccc(-c3cnc(N)c(C(=O)N[C@H]4CCCNC4)n3)c2)cc1 [Example 977, 3-amino-6-[3-({[4-(methyloxy)phenyl]acetyl}amino)phenyl]-N-[(3S)-piperidin-3-yl]pyrazine-2-carboxamide] | < 50 nM |  | 
CNC(=O)c1nc(-c2cccc(C(=O)NCc3ccc(O)c(OC)c3)c2)cnc1N [Example 244, 3-amino-6-{3-[({[4-hydroxy-3-(methyloxy)phenyl]methyl}amino)carbonyl]phenyl}-N-methylpyrazine-2-carboxamide] |  |  | IC50: 50 to 1000 nM
Nc1ncc(-c2cccc(CNC(=O)Nc3ccc(OC(F)(F)F)cc3)c2)nc1C(=O)N[C@H]1CCCNC1 [Example 930, 3-amino-N-[(3S)-piperidin-3-yl]-6-[3-({[({4-[(trifluoromethyl)oxy]phenyl}amino)carbonyl]amino}methyl)phenyl]pyrazine-2-carboxamide] | < 50 nM |  | 
Nc1ncc(-c2cccc(C(=O)NCc3cc(C(F)(F)F)ccc3F)c2)nc1C(=O)N[C@H]1CCCNC1 [Example 998, 3-amino-6-{3-[({[2-fluoro-5-(trifluoromethyl)phenyl]methyl}amino)carbonyl]phenyl}-N-[(3S)-piperidin-3-yl]pyrazine-2-carboxamide] | < 50 nM |  | 
Nc1ncc(-c2cccc(C(=O)NCc3c(F)cccc3Cl)c2)nc1C(=O)N[C@H]1CCCCNC1 [Example 1021, 3-amino-N-[(3S)-azepan-3-yl]-6-[3-({[(2-chloro-6-fluorophenyl)methyl]amino}carbonyl)phenyl]pyrazine-2-carboxamide] | < 50 nM |  | 
Nc1ncc(-c2cccc(NC(=O)Cc3c(F)c(F)c(F)c(F)c3F)c2)nc1C(=O)N[C@H]1CCCNC1 [Example 887, 3-amino-6-(3-{[(pentafluorophenyl)acetyl]amino}phenyl)-N-[(3S)-piperidin-3-yl]pyrazine-2-carboxamide] | < 50 nM |  | 
CN(C)c1ccc(C(=O)NCCCNC(=O)c2nc(-c3cccc(C(=O)NCc4ccccc4)c3)cnc2N)cc1 [Example 684, 3-amino-N-[3-({[4-(dimethylamino)phenyl]carbonyl}amino)propyl]-6-(3-{[(phenylmethyl)amino]carbonyl}phenyl)pyrazine-2-carboxamide] |  | ≥ 10000 nM | 
CNC(=O)c1nc(-c2cccc(C(=O)N[C@H](C)c3ccccc3)c2)cnc1N [Example 144, 3-amino-N-methyl-6-[3-({[(1R)-1-phenylethyl]amino}carbonyl)phenyl]pyrazine-2-carboxamide] |  |  | IC50: 1000 to 10000 nM

From patent US7704995B2 (Exelixis, Inc., priority 2003, dated 2010)
